Assay results reported in patent US20230257351A1, “SUBSTITUTED N-[…] HAVING P2X4 RECEPTOR ANTAGONISTIC ACTIVITY” (Bayer Aktiengesellschaft, priority 2020, published 2023).

Biological target: T1, human P2X4 (Homo sapiens, UniProt Q99571)
T1 construct: expressed in transfected cells
T1 sequence (Q99571 1-388): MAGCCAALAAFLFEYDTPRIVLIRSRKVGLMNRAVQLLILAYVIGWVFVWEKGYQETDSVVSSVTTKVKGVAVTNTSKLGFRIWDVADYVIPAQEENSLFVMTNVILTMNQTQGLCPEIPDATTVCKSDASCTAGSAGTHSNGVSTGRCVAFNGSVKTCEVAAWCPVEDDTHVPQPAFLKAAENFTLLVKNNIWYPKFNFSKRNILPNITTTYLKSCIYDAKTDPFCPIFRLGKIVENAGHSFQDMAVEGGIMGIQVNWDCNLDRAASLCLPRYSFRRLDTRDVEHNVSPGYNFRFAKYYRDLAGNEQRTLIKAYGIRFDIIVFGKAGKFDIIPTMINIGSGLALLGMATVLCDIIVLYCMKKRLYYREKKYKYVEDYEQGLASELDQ
Test: Human P2X4 HEK Cell FLIPR Assay
Type: cell-based
Conditions: HEK293 stably expressing human P2X4, agonist Bz-ATP 3 μM (EC80); for IC50: read-out: Human P2X4 HEK Cells (FLIPR Assay) avg IC50
Protocol: Compounds were tested on a HEK293 cell line stably expressing human P2X4. Cells were cultured on poly-D-lysine-coated 384-well plates at a density of 15,000 cells/well and incubated overnight at 37° C., 5% CO2. P2X4 function was assessed by measuring intracellular calcium fluxes caused by Benzoylbenzoyl-ATP (Bz-ATP) using the calcium-chelating dye Fluo8-AM (Molecular Devices) with the Fluorescent Imaging Plate Reader Tetra (FLIPR^Tetra; Molecular Devices CA). On the day of the assay, the medium was removed and the cells were incubated for 30 min at 37° C. and 5% CO2 in 30 μl of dye buffer (Hank's balanced salt solution, 10 mM HEPES, 1.8 mM CaCl2, 1 mM MgCl2, 2 mM probenecid, 5 mM D-glucose monohydrate, 5 μM Fluo8-AM, pH=7.4). Compounds diluted in probenecid buffer (Hank's balanced salt solution, 10 mM HEPES, 1.8 mM CaCl2, 1 mM MgCl2, 2 mM probenecid, 5 mM D-glucose monohydrate, pH=7.4) at ten concentrations ranging from 25 μM to 1 nM (final concentration) were dispensed and incubated for 30 min at room temperature. […] The final assay volume was 50 μl and final DMSO concentration was 0.5%.
The fluorescence intensity reflecting intracellular calcium changes was recorded before and after Bz-ATP addition, at an excitation and emission wavelengths of 470-495 nm and 515-575 nm respectively.
The compounds were tested in triplicates and fluorescence intensity raw data normalized to the agonist control and fitted to the four-parameter logistic equation:
Y=Bottom+(Top−Bottom)/(1+10^((Log IC50−X)*HillSlope))
Assay plate acceptance was based on the signal window (S/B)[…] and the reference compound pIC50 within ±3σ the mean of historic pIC50 of the compound. Failure to meet two of the three criteria determined exclusion of the plate's results.

Row | Human P2X4 HEK Cells (FLIPR Assay) avg Efficacy [%] | IC50 [nM] | SMILES
1 | 97 | 504 | CC(=O)N(c1ccc(S(C)(=O)=O)c(F)c1)c1cc(NC(=O)Cc2c(Cl)cccc2Cl)ccn1 [Example 82, N-{4-[2-(2,6-dichlorophenyl)acetamido]pyridin-2-yl}-N-[3-fluoro-4-(methanesulfonyl)phenyl]acetamide]
2 | 97 | 568 | CC(=O)N(c1cc(F)c(C)c(F)c1)c1cc(NC(=O)Cc2ccccc2Cl)ccn1 [Example 92, N-{4-[2-(2-chlorophenyl)acetamido]pyridin-2-yl}-N-(3,5-difluoro-4-methylphenyl)acetamide]
3 | 98 | 705 | CC(=O)N(c1cc(F)c(C)c(F)c1)c1cc(NC(=O)Cc2ccc(F)cc2Cl)ccn1 [Example 93, N-{4-[2-(2-chloro-4-fluorophenyl)acetamido]pyridin-2-yl}-N-(3,5-difluoro-4-methylphenyl)acetamide]
4 | 97 | 710 | CC(=O)N(c1cc(F)c(C)c(F)c1)c1cc(NC(=O)Cc2cccc(F)c2Cl)ccn1 [Example 94, N-{4-[2-(2-chloro-3-fluorophenyl)acetamido]pyridin-2-yl}-N-(3,5-difluoro-4-methylphenyl)acetamide]
5 | 100 | 694 | CC(=O)N(c1cc(F)c(C)c(F)c1)c1cc(NC(=O)Cc2c(Cl)cccc2Cl)ccn1 [Example 95, N-{4-[2-(2,6-dichlorophenyl)acetamido]pyridin-2-yl}-N-(3,5-difluoro-4-methylphenyl)acetamide]
6 | 89 | 362 | COc1c(F)cc(N(C(C)=O)c2cc(NC(=O)Cc3ccccc3Cl)ccn2)cc1F [Example 96, N-{4-[2-(2-chlorophenyl)acetamido]pyridin-2-yl}-N-(3,5-difluoro-4-methoxyphenyl)acetamide]
7 | 89 | 461 | COc1c(F)cc(N(C(C)=O)c2cc(NC(=O)Cc3ccc(F)cc3Cl)ccn2)cc1F [Example 97, N-{4-[2-(2-chloro-4-fluorophenyl)acetamido]pyridin-2-yl}-N-(3,5-difluoro-4-methoxyphenyl)acetamide]
8 | 92 | 296 | COc1c(F)cc(N(C(C)=O)c2cc(NC(=O)Cc3cccc(F)c3Cl)ccn2)cc1F [Example 98, N-{4-[2-(2-chloro-3-fluorophenyl)acetamido]pyridin-2-yl}-N-(3,5-difluoro-4-methoxyphenyl)acetamide]
9 | 95 | 449 | COc1c(F)cc(N(C(C)=O)c2cc(NC(=O)Cc3c(Cl)cccc3Cl)ccn2)cc1F [Example 99, N-{4-[2-(2,6-dichlorophenyl)acetamido]pyridin-2-yl}-N-(3,5-difluoro-4-methoxyphenyl)acetamide]
10 | 99 | 937 | CC(=O)N(c1cccc(OC(F)(F)F)c1)c1cc(NC(=O)Cc2ccccc2Cl)ccn1 [Example 102, N-{4-[2-(2-chlorophenyl)acetamido]pyridin-2-yl}-N-[3-(trifluoromethoxy)phenyl]acetamide]
11 | 97 | 767 | COc1cc(N(C(C)=O)c2cc(NC(=O)Cc3cccc(F)c3Cl)ccn2)ccc1F [Example 103, N-{4-[2-(2-chloro-3-fluorophenyl)acetamido]pyridin-2-yl}-N-(4-fluoro-3-methoxyphenyl)acetamide]
12 | 96 | 846 | COc1cc(N(C(C)=O)c2cc(NC(=O)Cc3c(Cl)cccc3Cl)ccn2)ccc1F [Example 104, N-{4-[2-(2,6-dichlorophenyl)acetamido]pyridin-2-yl}-N-(4-fluoro-3-methoxyphenyl)acetamide]
13 | 100 | 770 | CC(=O)N(c1cc(NC(=O)Cc2cccc(C(F)(F)F)c2Cl)ccn1)c1ccccc1Cl [Example 105, N-(2-chlorophenyl)-N-(4-{2-[2-chloro-3-(trifluoromethyl)phenyl]acetamido}pyridin-2-yl)acetamide]
14 | 95 | 765 | CC(=O)N(c1cc(NC(=O)Cc2ccccc2Cl)ccn1)c1ccccc1Cl [Example 106, N-(2-chlorophenyl)-N-{4-[2-(2-chlorophenyl)acetamido]pyridin-2-yl}acetamide]
15 | 98 | 550 | CC(=O)N(c1cc(NC(=O)Cc2ccc(F)cc2Cl)ccn1)c1ccccc1Cl [Example 107, N-{4-[2-(2-chloro-4-fluorophenyl)acetamido]pyridin-2-yl}-N-(2-chlorophenyl)acetamide]
16 | 97 | 769 | CC(=O)N(c1cc(NC(=O)Cc2cccc(F)c2Cl)ccn1)c1ccccc1Cl [Example 108, N-{4-[2-(2-chloro-3-fluorophenyl)acetamido]pyridin-2-yl}-N-(2-chlorophenyl)acetamide]
17 | 100 | 643 | CC(=O)N(c1cc(NC(=O)Cc2c(Cl)cccc2Cl)ccn1)c1ccccc1Cl [Example 109, N-(2-chlorophenyl)-N-{4-[2-(2,6-dichlorophenyl)acetamido]pyridin-2-yl}acetamide]
18 | 95 | 745 | CC(=O)N(c1cc(NC(=O)Cc2cccc(C(F)(F)F)c2Cl)ccn1)c1cc(F)ccc1Cl [Example 110, N-(2-chloro-5-fluorophenyl)-N-(4-{2-[2-chloro-3-(trifluoromethyl)phenyl]acetamido}pyridin-2-yl)acetamide]
19 | 96 | 391 | CC(=O)N(c1cc(NC(=O)Cc2ccccc2Cl)ccn1)c1ccccc1F [Example 115, N-{4-[2-(2-chlorophenyl)acetamido]pyridin-2-yl}-N-(2-fluorophenyl)acetamide]
20 | 97 | 520 | CC(=O)N(c1cc(NC(=O)Cc2ccc(F)cc2Cl)ccn1)c1ccccc1F [Example 116, N-{4-[2-(2-chloro-4-fluorophenyl)acetamido]pyridin-2-yl}-N-(2-fluorophenyl)acetamide]
21 | 95 | 789 | CC(=O)N(c1cc(NC(=O)Cc2cccc(F)c2Cl)ccn1)c1ccccc1F [Example 117, N-{4-[2-(2-chloro-3-fluorophenyl)acetamido]pyridin-2-yl}-N-(2-fluorophenyl)acetamide]
22 | 94 | 545 | CC(=O)N(c1cc(NC(=O)Cc2c(Cl)cccc2Cl)ccn1)c1ccccc1F [Example 118, N-{4-[2-(2,6-dichlorophenyl)acetamido]pyridin-2-yl}-N-(2-fluorophenyl)acetamide]
23 | 101 | 941 | CC(=O)N(c1cc(NC(=O)Cc2cccc(F)c2Cl)ccn1)c1ccc(C(F)(F)F)cc1F [Example 119, N-{4-[2-(2-chloro-3-fluorophenyl)acetamido]pyridin-2-yl}-N-[2-fluoro-4-(trifluoromethyl)phenyl]acetamide]
24 | 102 | 871 | CC(=O)N(c1cc(NC(=O)Cc2c(Cl)cccc2Cl)ccn1)c1ccc(C(F)(F)F)cc1F [Example 120, N-{4-[2-(2,6-dichlorophenyl)acetamido]pyridin-2-yl}-N-[2-fluoro-4-(trifluoromethyl)phenyl]acetamide]
25 | 97 | 843 | CC(=O)N(c1cc(NC(=O)Cc2cccc(C(F)(F)F)c2Cl)ccn1)c1cccc(F)c1F [Example 121, N-(4-{2-[2-chloro-3-(trifluoromethyl)phenyl]acetamido}pyridin-2-yl)-N-(2,3-difluorophenyl)acetamide]
26 | 95 | 357 | CC(=O)N(c1cc(NC(=O)Cc2ccccc2Cl)ccn1)c1cccc(F)c1F [Example 122, N-{4-[2-(2-chlorophenyl)acetamido]pyridin-2-yl}-N-(2,3-difluorophenyl)acetamide]
